Measurements as given in US7892784B2, “Lactam ring-opening enzyme and use thereof” (priority 2006, dated 2011).
≈ marks a conversion by molar mass, not a printed value. Like-named read-outs stand apart in the source and are kept apart here.

B1: rSttH: recombinant lactam ring-opening enzyme from Streptomyces albulus NBRC14147, N-terminal 6× His Tag fused protein (protein)
chain: VTAMPPETAAPPETAAPARPLRPVQALLVVDVQTAFVSGAEAVPEAARVLDRTRGLLARARTAGALVVHLQNDGAPGAVDAPHTPGWELHLPVEPGPREHVVRKTEDDGFADTGLGALLDAAGVTELAVCGVLSEMCVAATARTALELGHRVVLPHDAHATYDIPAAPDISDTVPAAMSSRAAEWALGDEVEIVPRAAAVPFVAPPLAPAPEAPAAAAAPAAGTGLSPAGPPPAPAR
modifications: N-terminal 6xHis tag; streptomyces albulus
notes: recombinant lactam ring-opening enzyme from Streptomyces albulus NBRC14147, N-terminal 6× His Tag fused protein

What was measured:
B. subtilis NBRC13169 = test: MIC test of STs and ST-acids; format: cell-based, Bacillus subtilis; conditions: Heart Infusion Broth; 1 day at 37° C.
S. pombe L972 = test: MIC test of STs and ST-acids; format: cell-based, Schizosaccharomyces pombe; conditions: YPD medium; 2 days at 30° C.
S. aureus FIR1169 = format: cell-based, Staphylococcus aureus
S. aureus AB = format: cell-based, Staphylococcus aureus
E. coli W3110 = test: MIC test of STs and ST-acids; format: cell-based, Escherichia coli; conditions: Heart Infusion Broth; 1 day at 37° C.
S. cerevisiae S288C = test: MIC test of STs and ST-acids; format: cell-based, Saccharomyces cerevisiae; conditions: YPD medium; 2 days at 30° C.
rSttH [1] = biological target: T1, rSttH (Streptomyces noursei, UniProt Q1MW86); test: rSttH reaction rate test (kinetic analysis, HPLC, Lineweaver-Burk); format: biochemical, Streptomyces albulus NBRC14147; conditions: for Vmax: substrate of rSttH, 30° C., 100 mM NaPB (pH 6.5), U = ST-acid production per minute (μmol)
T1 construct: purified rSttH from E. coli M15 (pREP4) carrying pQE30-SHF6R; 6xHis (N); made in house; host or cells: E. coli M15 (pREP4) carrying pQE30-SHF6R
Protocol: (§1) In accordance with the manufacturer's (Qiagen) protocols, a reaction mixture (500 μL) was prepared using 100 mM sodium phosphate buffer (pH 6.5), 1 mg/mL ST-F or ST-D, and 100 μg/mL of purified rSttH from E. coli M15 (pREP4) carrying pQE30-SHF6R. The reaction mixture was reacted for 1 hour at 30° C. with or without rSttH, and then extracted with chloroform to remove the proteins. The water layer was analyzed by reverse-phase HPLC using an ion-pair reagent. The analytical conditions were: column, C18 reverse-phase column (COSMOSIL 5C18-AR—II, 250×4.6 mm, Nacalai Tesque, Kyoto, Japan); column temperature, 30° C.; detection, 210 nm; and flow rate, 1 mL/minute. Two different mobile phases were used, one of 0.1% heptafluorobutyric acid+18% acetonitrile (ST-F reaction) and one of 0.1% heptafluorobutyric acid+23% acetonitrile (ST-D reaction). The kinetic assays were performed under conditions similar to those described previously except that the enzyme concentrations (2 μg/mL) and reaction times (5 minutes) were reduced to make them compatible with measurement of steady-state kinetic parameters. All tests were carried out under linear conditions. The reactions were terminated by addition of 15 μl 2N HCl, and then analyzed by HPLC. The kinetic constants were estimated using a Lineweaver-Burk plot. The native molecular weight of the rSttH was estimated by gel filtration using a COSMOSIL 5Diol-300 (7.8 mm×600 mm) column (Nacalai Tesque) which had been equilibrated with 20 mM sodium phosphate buffer (pH 7.0) containing 100 mM sodium sulfate.
(§2) The optimal pH was measured in several buffers (100 mM) with differing pH values: sodium phosphate (NaPB), pH 4.5 to 7; Tris-HCl, pH 7 to 10. Activity peaked at a pH of 6.5 and declined rapidly with decreasing pH (around 4). The effect of temperature on enzymatic activity was also investigated within the range of 25° C. to 75° C. using 100 mM NaPB buffer (pH 6.5). Although enzymatic activity was greatest at 45° C., approximately 90% of maximum activity was also detected at 65° C.

rSttH [2] = test system: T2, rSttH; test: as above; format: biochemical, Streptomyces albulus NBRC14147; conditions: substrate of rSttH; 30° C., 100 mM NaPB (pH 6.5); average ± s.d. of three tests
T2 construct: purified rSttH from E. coli M15 (pREP4) carrying pQE30-SHF6R; 6xHis (N); made in house; host or cells: E. coli M15 (pREP4) carrying pQE30-SHF6R
Protocol: as §1, §2

S. cerevisiae CKY8 = test: MIC of ST-F and ST-D in S. cerevisiae CKY8 overexpressing sttH or nat gene; format: cell-based, Saccharomyces cerevisiae; conditions: SC medium, 2 days at 30° C.
Protocol: After sequence confirmation, the amplified fragments were inserted into the same sites in pAD4 to prepare pAD4-nat and pAD4-sttH, in which these genes were expressed under the control of the constitutive promoter of yeast alcohol dehydrogenase. S. cerevisiae CKY8 strain carrying pAD4-nat and pAD4-sttH was grown in SC-Leu medium containing ST (ST-F or ST-D, 0 to 4 mM), and the MICs of ST-F and ST-D were determined.
(§3) Although it was previously reported that the biological activity of chemically synthesized ST-F-acid is negligible in microorganisms and plants, that of ST-D-acid remains unclear. Therefore, we determined the respective MICs of ST-F and ST-D in E. coli and Saccharomyces cerevisiae overexpressing the sttH gene or nat gene (Table 3). […] To confirm this, the selective toxicity of ST-acids and STs against various microorganisms including gram-positive and -negative bacteria, clinically isolated pathogenic bacteria and yeasts was investigated. […] A “c/a” in parentheses in the table represents the ratio of the minimum inhibitory concentrations of ST-F-acid and ST-F, while “d/b” represents the ratio of the minimum inhibitory concentrations of ST-D-acid and ST-D.

E. coli XL1-Blue MRF' = test: MIC of ST-F and ST-D in E. coli XL1-Blue MRF' overexpressing sttH or nat gene; format: cell-based, Escherichia coli; conditions: LB medium, 1 day at 37° C.
Protocol: Restriction enzyme sites (GGATCC or AAGCTT, underlined) and a stop codon (TCA, underlined) were inserted into these primers. An expression vector (pQE30-nat) having incorporated therein an amplified fragment including these primers was constructed using pQE30. The MIC of ST-F and ST-D in an E. coli XL1-Blue MRF′ strain carrying pQE30-nat and pQE30-SHF6R were determined on LB agar flat plates containing ampicillin (100 μg/mL), 0.1 mM IPTG and STs (0 to 4 mM). S. cerevisiae CKY8 strain overexpressing the nat gene and the sttH gene was also prepared as follows. The following two sets of primers having restriction enzyme sites (AAGCTT or CTGCAG, underlined) and stop codons (TCA, underlined) added thereto were designed and used in PCR:
as §3

[3] = test system: gram-positive and -negative bacteria, clinically isolated pathogenic bacteria and yeasts; format: cell-based
[4] = test system: bacteria, fungi and plants; conditions: chemically synthesized from ST-F; reports of Inamori and Taniyama; cited from earlier work
[5] = Enzymatic properties of rSttH (effect of pH and temperature); format: biochemical
Protocol: as §2

[6] = Heart Infusion Broth, 1 day at 37° C.

Molecule | Minimum inhibitory concentration (MIC) (B. subtilis NBRC13169) [µM] | ratio of MICs of ST-acid and parent ST (c/a or d/b) (B. subtilis NBRC13169) | Minimum inhibitory concentration (MIC) (S. pombe L972) [µM] | ratio of MICs of ST-acid and parent ST (c/a or d/b) (S. pombe L972) | Minimum inhibitory concentration (MIC) (S. aureus FIR1169) | Minimum inhibitory concentration (MIC) (S. aureus AB) | Minimum inhibitory concentration (MIC) (E. coli W3110) [µM] | ratio of MICs of ST-acid and parent ST (c/a or d/b) (E. coli W3110) | Minimum inhibitory concentration (MIC) (S. cerevisiae S288C) [µM] | ratio of MICs of ST-acid and parent ST (c/a or d/b) (S. cerevisiae S288C) | Vmax (rSttH [1]) [U/mg] | Km (rSttH [2]) [µM] | Minimum inhibitory concentration (MIC) (S. cerevisiae CKY8; CKY8 + pAD4-nat) [µM] | Minimum inhibitory concentration (MIC) (S. cerevisiae CKY8; CKY8 + pAD4-sttH) [µM] | Minimum inhibitory concentration (MIC) (S. cerevisiae CKY8; CKY8 + pAD4) [µM] | Minimum inhibitory concentration (MIC) (S. aureus FIR1169; [6]) [mM] | Minimum inhibitory concentration (MIC) (S. aureus AB; [6]) [mM] | Minimum inhibitory concentration (MIC) (E. coli XL1-Blue MRF'; XL1-Blue MRF' + pQE30-SHF6R) [µM] | Minimum inhibitory concentration (MIC) (E. coli XL1-Blue MRF'; XL1-Blue MRF' + pQE30-nat) [µM] | Minimum inhibitory concentration (MIC) (E. coli XL1-Blue MRF'; XL1-Blue MRF' + pQE30) [µM] | further results
lactam ring-opened streptothricin D derivative [ST-D-acid] | 125 | 31.3 | 1000 | 125 | 0.06 (15) mM | 0.06 (15) mM | 250 | 31.3 | 1000 | 250 | – | – | – | – | – | – | – | – | – | – | antimicrobial activity (S. aureus FIR1169): particularly strong antimicrobial activity; antimicrobial activity (S. aureus AB): particularly strong antimicrobial activity
NCCC[C@H](N)CC(=O)NCCC[C@H](N)CC(=O)NCCC[C@H](N)CC(=O)N[C@@H]1[C@H](O)[C@@H](OC(N)=O)[C@@H](CO)O[C@H]1NC1=N[C@@H]2C(=O)NC[C@@H](O)[C@H]2N1 [ST-D, streptothricin D] | 4 (≈ 3.04 µg/mL) | – | 8 (≈ 6.07 µg/mL) | – | – | – | 8 (≈ 6.07 µg/mL) | – | 4 (≈ 3.04 µg/mL) | – | 68.95 ± 13.9 | 5740 ± 990 | >4000 | >4000 | <30 | 0.004 (≈ 3.04 µg/mL) | 0.004 (≈ 3.04 µg/mL) | <30 | 2000 | <30 | –
NCCC[C@H](N)CC(=O)N[C@@H]1[C@H](O)[C@@H](OC(N)=O)[C@@H](CO)O[C@H]1NC1=N[C@@H]2C(=O)NC[C@@H](O)[C@H]2N1 [ST-F, streptothricin F] | 16 (≈ 8.04 µg/mL) | – | 125 (≈ 62.8 µg/mL) | – | – | – | 30 (≈ 15.1 µg/mL) | – | 62 (≈ 31.2 µg/mL) | – | 42.26 ± 2.8 | 960 ± 190 | >4000 | >4000 | 500 | 0.016 (≈ 8.04 µg/mL) | 0.016 (≈ 8.04 µg/mL) | 250 | 4000 | <30 | Vmax/Km of the reaction with ST-F relative to the reaction with ST-D (rSttH [1]; rSttH): 4 fold
NCCCC(N)CC(=O)NC1C(/N=C2/NC(C(=O)O)C(C(O)CN)N2)OC(CO)C(OC(N)=O)C1O (centres unmarked) [ST-F-acid] | 4000 (≈ 2080 µg/mL) | 250 | > 4000 | > 32 | 2 (126) mM | 2 (126) mM | 4000 (≈ 2080 µg/mL) | 133 | > 4000 | > 64 | – | – | – | – | – | – | – | – | – | – | antimicrobial activity [3]: lost almost all of its antimicrobial activity; antibiotic activity [4]: did not exhibit antibiotic activity
B1 | – | – | – | – | – | – | – | – | – | – | – | – | – | – | – | – | – | – | – | – | optimal pH (activity peak) ([5]; 100 mM buffers: NaPB pH 4.5 to 7, Tris-HCl pH 7 to 10): 6.5; enzymatic activity relative to maximum activity ([5]; at 65° C., 100 mM NaPB (pH 6.5)): approximately 90%; temperature of greatest enzymatic activity ([5]; range 25° C. to 75° C., 100 mM NaPB (pH 6.5)): 45 °C
